Reference: patent US10544138B2, “Tricyclic kinase inhibitors of MELK and methods of use” (Dana-Farber Cancer Institute, Inc., priority 2015, dated 2020)

Columns and labels:
Aurora A = molecular target: T1, Aurora A (Homo sapiens, UniProt O14965); assay: Recombinant mitotic kinase assay, Aurora A; format: biochemical; settings: recombinant kinases
T1 sequence (O14965 1-403): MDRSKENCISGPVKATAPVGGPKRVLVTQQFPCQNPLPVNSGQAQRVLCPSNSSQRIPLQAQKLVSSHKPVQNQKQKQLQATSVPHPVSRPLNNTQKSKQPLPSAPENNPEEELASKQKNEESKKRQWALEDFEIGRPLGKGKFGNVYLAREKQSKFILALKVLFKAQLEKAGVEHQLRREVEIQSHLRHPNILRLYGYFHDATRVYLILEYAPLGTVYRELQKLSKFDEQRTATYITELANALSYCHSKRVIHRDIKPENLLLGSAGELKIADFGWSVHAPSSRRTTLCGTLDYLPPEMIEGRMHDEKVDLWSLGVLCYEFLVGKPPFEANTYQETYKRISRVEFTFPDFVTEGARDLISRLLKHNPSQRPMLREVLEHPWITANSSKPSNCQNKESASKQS
Method: (§1) […] assays were performed with recombinant protein of the indicated mitotic kinase (left) and AMPK family kinases (right) in the presence of THZ-4-63-1. […] Cells were treated with nocodazole (100 ng/ml) for 18 h or not treated (Asyn., asynchronous). Nocodazole-arrested mitotic cells (M) were isolated via shake-off. The attached cells enriched in G2 phase (G2) were harvested. A portion of the mitotic cells were washed off nocodazole and released into G1 phase after 4 hours of incubation (G1). […] In Panel D, mitotic lysates were prepared from the indicated cells, and treated with λ-phosphatase at 30° C. In Panel E, nocodazole-arrested mitotic cells were treated with increasing concentration of THZ-4-63-1 for 30 min. Cell lysates were subjected to immunoblotting.
(§2) To discover a selective MELK inhibitor, a few molecule scaffolds with the potential of binding to MELK were identified, including 2,4-disubstituted pyrimidines and benzonaphthyridinones. […] To investigate if THZ-4-63-1 confers selective inhibition on MELK, we tested its effect on other mitotic kinases. In assays using recombinant kinases, MELK kinase activity was 20-fold more sensitive to THZ-4-63-1, than that of Aurora A, Aurora B, CDK1, or PLK1 (FIG. 1B).

BRSK1 = molecular target: T2, BRSK1 (Homo sapiens, UniProt Q8TDC3); assay: Recombinant AMPK family kinase assay, BRSK1; format: biochemical; settings: recombinant kinases
T2 sequence (Q8TDC3 1-778): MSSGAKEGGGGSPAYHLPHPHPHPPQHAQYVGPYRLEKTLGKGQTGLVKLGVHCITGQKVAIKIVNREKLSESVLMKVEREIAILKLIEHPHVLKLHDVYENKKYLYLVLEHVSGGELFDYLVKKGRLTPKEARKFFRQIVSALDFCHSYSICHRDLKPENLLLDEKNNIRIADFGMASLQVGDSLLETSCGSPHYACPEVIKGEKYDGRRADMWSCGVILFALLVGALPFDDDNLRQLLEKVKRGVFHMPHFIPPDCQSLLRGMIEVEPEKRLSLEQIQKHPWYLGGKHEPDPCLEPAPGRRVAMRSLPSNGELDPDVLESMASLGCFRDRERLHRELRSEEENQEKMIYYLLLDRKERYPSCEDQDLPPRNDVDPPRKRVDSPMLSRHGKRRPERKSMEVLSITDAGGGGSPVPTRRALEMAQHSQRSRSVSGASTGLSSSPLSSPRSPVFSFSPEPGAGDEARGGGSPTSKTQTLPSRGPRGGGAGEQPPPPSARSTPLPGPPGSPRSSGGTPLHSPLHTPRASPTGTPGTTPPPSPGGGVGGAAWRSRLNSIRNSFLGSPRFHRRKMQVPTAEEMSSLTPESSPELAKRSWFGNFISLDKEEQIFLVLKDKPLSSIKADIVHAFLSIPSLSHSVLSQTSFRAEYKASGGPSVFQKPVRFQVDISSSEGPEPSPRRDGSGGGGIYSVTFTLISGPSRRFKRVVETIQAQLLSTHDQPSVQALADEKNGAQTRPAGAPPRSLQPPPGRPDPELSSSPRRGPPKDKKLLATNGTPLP
Method: as §1, §2

mitotic cells = assay: Mitotic cell death, time-lapse imaging; format: cell-based
Method: U2OS-GFP-H2B cells were treated with vehicle control (0.02% DMSO, v/v) or 1 μM THZ-4-63-1, and subjected to live imaging. Time is given in hours:minutes, relative to the initial time of drug treatment. The arrow points to chromosomes that haven't incorporated into the metaphase plate. […] MDA-MB-468 cells expressing tet-on-shMELK and GFPH2B cells were treated with doxycycline for three days, before subjected to live imaging. Panel D contains images of immunoblotting of lysates from cells treated as in Panel C. Panel E contains images showing mitotic cell death in a cell treated with THZ-4-63-1. The table indicates the quantification of cell death events. Panel F contains images showing that treatment with THZ-4-63-1 impairs chromosome alignment. Cells were treated with DMSO control, or THZ-4-63-1 (5 μM) for 4 hours, followed by MG132 (10 μM) for 1 h. Cells were fixed and stained with anti-CREST, anti-α-tubulin, and DAPI to visualize chromosomes and kinetochores. The histogram indicates the quantifications of cells in metaphase with misaligned chromosomes.
Perturbation of normal mitotic kinetic can lead to various cellular outcomes including cell death.

MELK kinase activity more sensitive than that of Aurora A (Aurora A): 20 fold | Selectivity for MELK over BRSK1 (BRSK1): preferentially targets MELK
Structure (SMILES): CN(C)Cc1ccc(-n2c(=O)ccc3cnc4ccc(-c5cc(Cl)c(O)c(Cl)c5)cc4c32)cc1 [THZ-4-63-1]
Mitotic cell death (mitotic cells): efficiently induced mitotic cell death
